# Data from ChEMBL document CHEMBL3885861, “Open TG-GATES”.
# Organism: Rattus norvegicus
# Experiment: Open TG-GATES - Regimen: Single
# Format: toxicity, organism-based, Sprague-Dawley
# Parameters: regimen Single, gender Male, age 6 weeks
# Conditions: in vivo, po, 10 mg/kg, route gavage, dose level Low; for Bas / Eos / Hb / Ht / Lym / MCH / MCHC / MCV / Mono / Neu / Plat / RBC / Ret / WBC: tissue Blood; for KIDNEY_L / KIDNEY_R / KIDNEY_TOTAL: tissue Kidney; for LIVER: tissue Liver; for A/G / ALP / ALT / AST / BUN / CRE / Ca / Cl / DBIL / GLC / IP / K / LDH / Na / PL / RALB / TBIL / TC / TG / TP / gamma-GTP: tissue Plasma
structure (smiles),measurement,setting,value
Cc1ccc2cc3c(ccc4ccccc43)c3c2c1CC3 [3-METHYLCHOLANTHRENE],TERMINAL_BW,3 h,210.8 g
same,Bas,3 h,0%
same,Eos,3 h,0.8%
same,Hb,3 h,12.6 g/dL
same,Ht,3 h,39.3%
same,Lym,3 h,77.6%
same,MCH,3 h,20.5 pg
same,MCHC,3 h,32.2%
same,MCV,3 h,63.7 fL
same,Mono,3 h,3.4%
same,Neu,3 h,17.8%
same,Plat,3 h,130.6 x10_4/uL
same,RBC,3 h,616.6 x10_4/ul
same,Ret,3 h,9.1%
same,WBC,3 h,94.8 x10_2/uL
same,KIDNEY_L,3 h,0.9 g
same,KIDNEY_R,3 h,0.9 g
same,KIDNEY_TOTAL,3 h,1.8 g
same,LIVER,3 h,9.5 g
same,A/G,3 h,1
same,ALP,3 h,1720 IU/L
same,ALT,3 h,46.6 IU/L
same,AST,3 h,81 IU/L
same,BUN,3 h,13.1 mg/dL
same,CRE,3 h,0.1 mg/dL
same,Ca,3 h,10.9 mg/dL
same,Cl,3 h,103 meq/L
same,DBIL,3 h,0.002 mg/dL
same,GLC,3 h,175.4 mg/dL
same,IP,3 h,8.4 mg/dL
same,K,3 h,4.2 meq/L
same,LDH,3 h,201.8 IU/L
same,Na,3 h,139.7 meq/L
same,PL,3 h,172 mg/dL
same,RALB,3 h,2.9 g/dL
same,TBIL,3 h,0.004 mg/dL
same,TC,3 h,80 mg/dL
same,TG,3 h,185.2 mg/dL
same,TP,3 h,5.6 g/dL
same,gamma-GTP,3 h,0.7 IU/L
same,TERMINAL_BW,6 h,205.3 g
same,Bas,6 h,0%
same,Eos,6 h,0.4%
same,Hb,6 h,12.9 g/dL
same,Ht,6 h,38.8%
same,Lym,6 h,73.8%
same,MCH,6 h,20.7 pg
same,MCHC,6 h,33.3%
same,MCV,6 h,62.1 fL
same,Mono,6 h,3.6%
same,Neu,6 h,21.2%
same,Plat,6 h,131.8 x10_4/uL
same,RBC,6 h,625.8 x10_4/ul
same,Ret,6 h,7.9%
same,WBC,6 h,136.1 x10_2/uL
same,KIDNEY_L,6 h,0.9 g
same,KIDNEY_R,6 h,0.9 g
same,KIDNEY_TOTAL,6 h,1.8 g
same,LIVER,6 h,8.3 g
same,A/G,6 h,1
same,ALP,6 h,1483.2 IU/L
same,ALT,6 h,37.6 IU/L
same,AST,6 h,74.6 IU/L
same,BUN,6 h,8.2 mg/dL
same,CRE,6 h,0.1 mg/dL
same,Ca,6 h,10.6 mg/dL
same,Cl,6 h,105.3 meq/L
same,DBIL,6 h,0.002 mg/dL
same,GLC,6 h,165.8 mg/dL
same,IP,6 h,9.2 mg/dL
same,K,6 h,4.2 meq/L
same,LDH,6 h,162 IU/L
same,Na,6 h,140.5 meq/L
same,PL,6 h,160.6 mg/dL
same,RALB,6 h,2.8 g/dL
same,TBIL,6 h,0.004 mg/dL
same,TC,6 h,87.6 mg/dL
same,TG,6 h,79.2 mg/dL
same,TP,6 h,5.6 g/dL
same,gamma-GTP,6 h,0.7 IU/L
same,TERMINAL_BW,9 h,205.9 g
same,Bas,9 h,0%
same,Eos,9 h,0.8%
same,Hb,9 h,12.2 g/dL
same,Ht,9 h,37.7%
same,Lym,9 h,74.2%
same,MCH,9 h,20.2 pg
same,MCHC,9 h,32.5%
same,MCV,9 h,62 fL
same,Mono,9 h,2.8%
same,Neu,9 h,21.6%
same,Plat,9 h,122.2 x10_4/uL
same,RBC,9 h,608.4 x10_4/ul
same,Ret,9 h,8.9%
same,WBC,9 h,114.6 x10_2/uL
same,KIDNEY_L,9 h,0.9 g
same,KIDNEY_R,9 h,0.9 g
same,KIDNEY_TOTAL,9 h,1.7 g
same,LIVER,9 h,8.3 g
same,A/G,9 h,1
same,ALP,9 h,1540.8 IU/L
same,ALT,9 h,33.6 IU/L
same,AST,9 h,72 IU/L
same,BUN,9 h,11.6 mg/dL
same,CRE,9 h,0.1 mg/dL
same,Ca,9 h,10.5 mg/dL
same,Cl,9 h,104.7 meq/L
same,DBIL,9 h,0 mg/dL
same,GLC,9 h,174.4 mg/dL
same,IP,9 h,10.2 mg/dL
same,K,9 h,4.4 meq/L
same,LDH,9 h,186.6 IU/L
same,Na,9 h,142.1 meq/L
same,PL,9 h,155.2 mg/dL
same,RALB,9 h,2.8 g/dL
same,TBIL,9 h,0.002 mg/dL
same,TC,9 h,81.4 mg/dL
same,TG,9 h,90.6 mg/dL
same,TP,9 h,5.5 g/dL
same,gamma-GTP,9 h,0.8 IU/L
same,TERMINAL_BW,24 h,216.8 g
same,Bas,24 h,0%
same,Eos,24 h,0.2%
same,Hb,24 h,12.7 g/dL
same,Ht,24 h,38.9%
same,Lym,24 h,79%
same,MCH,24 h,20.2 pg
same,MCHC,24 h,32.6%
same,MCV,24 h,62 fL
same,Mono,24 h,3.4%
same,Neu,24 h,16.2%
same,Plat,24 h,120.4 x10_4/uL
same,RBC,24 h,627.6 x10_4/ul
same,Ret,24 h,7.9%
same,WBC,24 h,105.1 x10_2/uL
same,KIDNEY_L,24 h,0.9 g
same,KIDNEY_R,24 h,1 g
same,KIDNEY_TOTAL,24 h,1.9 g
same,LIVER,24 h,10.7 g
same,A/G,24 h,1
same,ALP,24 h,1758 IU/L
same,ALT,24 h,40.6 IU/L
same,AST,24 h,73.8 IU/L
same,BUN,24 h,15.7 mg/dL
same,CRE,24 h,0.1 mg/dL
same,Ca,24 h,10.9 mg/dL
same,Cl,24 h,103.5 meq/L
same,DBIL,24 h,0.002 mg/dL
same,GLC,24 h,179.6 mg/dL
same,IP,24 h,6.9 mg/dL
same,K,24 h,4.4 meq/L
same,LDH,24 h,173.4 IU/L
same,Na,24 h,141.7 meq/L
same,PL,24 h,165.6 mg/dL
same,RALB,24 h,2.8 g/dL
same,TBIL,24 h,0.002 mg/dL
same,TC,24 h,81.6 mg/dL
same,TG,24 h,150.3 mg/dL
same,TP,24 h,5.5 g/dL
same,gamma-GTP,24 h,0.8 IU/L
